Here are results for 16 compounds from ChEMBL document CHEMBL5120794, “Development of 5-hydroxyl-1-azabenzanthrone derivatives as dual binding site and selective acetylcholinesterase inhibitors” (Eur J Med Chem, 2022).

A word on the Papp: it is the rate of passage across a membrane or cell layer, normalised by area and donor concentration. In general, IC50 refers to the point on the concentration scale where inhibition reaches its midpoint. The low end stands for inhibition by little substance, the high end for a need for much substance. What is called inhibition is how much of the control response was suppressed. Read a high inhibition as strong suppression.

The structures appear in SMILES notation. Active and inactive are the calls of the source. No cut-off for these calls is given here.

A short description of one series: in vitro. Conditions: PAMPA. (In general: PAMPA measures passive passage across an artificial lipid membrane.)
A further series has as its target Cholinesterase (Equus caballus, UniProt P81908).
A further series deals with Acetylcholinesterase (Electrophorus electricus, UniProt O42275). The experiment in a line: Inhibition of Electrophorus electricus AchE using […] as substrate incubated for 10 mins followed by substrate addition measured at 0 to 180 secs by Ellman's method. In general terms: In Ellman's method for cholinesterases, released thiocholine reacts with DTNB.

For the next series, the system named is PC-12. The experiment in a line: Cytoprotective activity against H2O2-induced oxidative damage in rat PC-12 cells assessed as cell viability at 1 uM preincubated for 4 hrs followed by H2O2 treatment for another 24 hrs by MTT assay. Conditions: time 28.0 hrs. Type of series: functional, cell-based. On the technique in general: Tetrazolium assays rely on reduction of a dye to a coloured formazan, in cell work by metabolically active cells.

Series [1] concerns the target Amyloid-beta precursor protein (Homo sapiens) (UniProt P05067). The experiment in a line: Inhibition of amyloid beta (1 to 42) (unknown origin) self-induced aggregation at 25 uM measured after 46 to 48 hrs by Thioflavin binding assay relative to control. Conditions: time 46-48 hrs.

Acetylcholinesterase, sequence (O42275 whole entry): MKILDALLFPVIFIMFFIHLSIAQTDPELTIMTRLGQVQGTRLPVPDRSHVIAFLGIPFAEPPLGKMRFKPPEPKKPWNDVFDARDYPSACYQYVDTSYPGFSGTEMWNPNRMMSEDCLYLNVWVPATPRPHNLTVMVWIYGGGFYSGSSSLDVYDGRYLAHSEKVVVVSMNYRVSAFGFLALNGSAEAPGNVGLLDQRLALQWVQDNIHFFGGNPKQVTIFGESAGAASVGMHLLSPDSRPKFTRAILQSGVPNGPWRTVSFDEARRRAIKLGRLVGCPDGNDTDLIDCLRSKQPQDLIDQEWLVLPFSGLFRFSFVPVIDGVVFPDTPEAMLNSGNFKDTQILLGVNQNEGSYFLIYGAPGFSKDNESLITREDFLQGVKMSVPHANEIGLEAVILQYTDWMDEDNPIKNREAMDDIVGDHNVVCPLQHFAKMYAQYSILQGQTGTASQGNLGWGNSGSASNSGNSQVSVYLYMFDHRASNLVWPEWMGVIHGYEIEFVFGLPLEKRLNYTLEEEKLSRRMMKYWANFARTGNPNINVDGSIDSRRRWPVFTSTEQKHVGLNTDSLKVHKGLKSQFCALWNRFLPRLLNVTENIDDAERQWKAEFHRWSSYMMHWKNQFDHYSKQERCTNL
Amyloid-beta precursor protein (Homo sapiens), sequence (P05067 whole entry): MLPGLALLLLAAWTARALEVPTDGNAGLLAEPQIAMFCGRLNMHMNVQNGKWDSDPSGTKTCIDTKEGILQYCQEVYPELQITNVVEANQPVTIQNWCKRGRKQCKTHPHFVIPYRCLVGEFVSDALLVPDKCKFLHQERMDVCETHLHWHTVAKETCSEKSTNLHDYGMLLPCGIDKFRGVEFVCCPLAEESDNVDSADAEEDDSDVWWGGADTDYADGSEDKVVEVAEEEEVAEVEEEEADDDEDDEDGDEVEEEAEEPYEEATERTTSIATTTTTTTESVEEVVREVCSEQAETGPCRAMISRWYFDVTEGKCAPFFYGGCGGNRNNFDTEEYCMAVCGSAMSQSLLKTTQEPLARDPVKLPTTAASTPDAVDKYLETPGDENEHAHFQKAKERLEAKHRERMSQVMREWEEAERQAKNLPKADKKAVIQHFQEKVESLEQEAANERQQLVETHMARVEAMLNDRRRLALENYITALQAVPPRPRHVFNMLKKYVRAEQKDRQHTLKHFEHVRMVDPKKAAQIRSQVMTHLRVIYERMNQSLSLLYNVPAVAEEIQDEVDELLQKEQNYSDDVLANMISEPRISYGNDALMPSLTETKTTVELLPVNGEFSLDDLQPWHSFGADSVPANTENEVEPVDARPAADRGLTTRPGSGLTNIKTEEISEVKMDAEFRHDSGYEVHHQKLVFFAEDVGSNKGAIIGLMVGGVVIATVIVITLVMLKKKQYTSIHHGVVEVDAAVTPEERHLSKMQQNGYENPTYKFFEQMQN
Cholinesterase, sequence (P81908 whole entry): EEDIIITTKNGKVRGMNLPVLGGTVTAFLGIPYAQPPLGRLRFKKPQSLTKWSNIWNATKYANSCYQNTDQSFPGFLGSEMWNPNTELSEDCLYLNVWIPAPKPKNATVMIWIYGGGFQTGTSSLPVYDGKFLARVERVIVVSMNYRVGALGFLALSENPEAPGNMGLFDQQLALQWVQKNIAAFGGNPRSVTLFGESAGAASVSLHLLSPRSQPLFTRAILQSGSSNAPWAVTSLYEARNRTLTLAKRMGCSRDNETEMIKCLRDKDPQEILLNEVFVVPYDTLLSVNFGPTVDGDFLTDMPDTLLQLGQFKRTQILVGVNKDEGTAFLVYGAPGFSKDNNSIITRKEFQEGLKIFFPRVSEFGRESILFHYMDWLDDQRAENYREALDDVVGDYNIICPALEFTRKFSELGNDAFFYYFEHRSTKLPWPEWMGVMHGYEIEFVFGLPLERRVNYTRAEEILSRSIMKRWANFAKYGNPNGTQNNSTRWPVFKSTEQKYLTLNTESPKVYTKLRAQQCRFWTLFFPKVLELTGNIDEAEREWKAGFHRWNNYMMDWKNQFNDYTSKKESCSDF

Take `CCn1cc(C(=O)O)c(=O)c2cc(F)c(N3CCNC(C)C3)c(F)c21` (configuration not stated) [LOMEFLOXACIN]: in “in vitro”, the Papp was determined as 0.9 ×10⁻⁶ cm/s.
With `O=C1c2ccccc2-c2nccc3cc(OCCCN4CCCCC4)cc1c23`, the IC50 against Cholinesterase was 35.3 µM; at Acetylcholinesterase, 0.14 µM. The result with PC-12 was Active. Also, in series [1], the inhibition turned out to be 41.2%.
For `O=C1c2ccccc2-c2nccc3cc(OCCN4CCOCC4)cc1c23` the same measures were over 100 µM, 19.7 µM, “Active” and 24.4%.
As to `CC1CCCCN1CCCCOc1cc2c3c(nccc3c1)-c1ccccc1C2=O` (configuration not stated), the results for the IC50 against Cholinesterase and on Acetylcholinesterase were 4.15 µM and 0.25 µM, respectively. The result in the series on PC-12 was Active. In addition, the inhibition in series [1] was found to be 34.8%.
For `O=C1c2ccccc2-c2nccc3cc(OCCN4CCCCC4)cc1c23`, in that order: 6.71 µM, 3.69 µM, “Active” and 27.5%.
Take `O=C1c2ccccc2-c2nccc3cc(OCCCN4CCOCC4)cc1c23`: the results for the IC50 on Cholinesterase and against Acetylcholinesterase were over 100 µM and 10.2 µM, respectively. Also, the outcome with PC-12 was Active. Further, the inhibition in series [1] is 23.5%.
For `O=C1c2ccccc2-c2nccc3cc(OCCCCN4CCCCC4)cc1c23`, in that order: 15.4 µM, 0.15 µM, “Active” and 32.1%.
Turning to `CN1CCN(CCCOc2cc3c4c(nccc4c2)-c2ccccc2C3=O)CC1`, the IC50 was over 100 µM against Cholinesterase and 0.82 µM against Acetylcholinesterase. This compound returned an inhibition in series [1] of 29.1%.
Turning to `O=C1c2ccccc2-c2nccc3cc(OCCCCN4CCOCC4)cc1c23`, the figures for the IC50 against Cholinesterase and against Acetylcholinesterase were over 100 µM and 7.3 µM, respectively. For the same compound, the result with PC-12 was Active. The inhibition in series [1] came out at 13.1%.
The compound `Clc1cccc(Cl)c1N=C1NCCN1` [CLONIDINE] registered a Papp in the series “in vitro” of 5.7 ×10⁻⁶ cm/s.
For `CC1CCCCN1CCOc1cc2c3c(nccc3c1)-c1ccccc1C2=O` (configuration not stated), the IC50 on Cholinesterase is over 100 µM; at Acetylcholinesterase, 1.31 µM. For the same compound, the outcome in the series with PC-12 was Active. In addition, the inhibition in series [1] was 16.2%.
For `O=C1c2ccccc2-c2nccc3cc(OCCCCN4CCN(CCO)CC4)cc1c23`, in that order: over 100 µM, 0.92 µM, “Active” and 26.1%.
Turning to `O=C1c2ccccc2-c2nccc3cc(OCCCN4CCN(CCO)CC4)cc1c23`, the IC50 on Cholinesterase was over 100 µM; on Acetylcholinesterase it was 0.19 µM. Moreover, the result in the series with PC-12 was Active. This compound displayed an inhibition in series [1] of 9.7%.
For `O=C1c2ccccc2-c2nccc3cc(OCCN4CCN(CCO)CC4)cc1c23`, in that order: over 100 µM, 0.42 µM, “Active” and 14.9%.
For `CN1CCN(CCCCOc2cc3c4c(nccc4c2)-c2ccccc2C3=O)CC1`, in that order: over 100 µM, 1.41 µM, “Active” and 25.4%.
For `CN1CCN(CCOc2cc3c4c(nccc4c2)-c2ccccc2C3=O)CC1`, in that order: over 100 µM, 0.86 µM, “Active” and 18.5%.
